Experimental findings from ChEMBL document CHEMBL5380872, “Development of a Potent Nurr1 Agonist Tool for In Vivo Applications” (J Med Chem, 2023) are described below.

As a reminder, the EC50 is the concentration at which the effect is half-maximal. By AUC is commonly meant the area under the concentration-time curve, a measure of exposure. What is called Cmax is the maximum level reached in the sampled fluid or tissue. For orientation: IC50 means the concentration that inhibits the measured activity by half. A higher IC50 goes with a need for much substance.

The structures appear in SMILES notation.

For data set [1], the target named is T1, Nuclear receptor subfamily 4immunitygroup A member 1 (Homo sapiens, UniProt P22736). In words: cell-based.
Description: (§1) Agonist activity at Nur77 (unknown origin) by Gal4 hybrid reporter gene assay
The nature of another data set: in vivo. To be noted: Sprague-Dawley, rat, po, 5 mg/kg.
For data set [2] the following is noted: rat, in vivo, po, 5 mg/kg, 8 h.
Data set [3] concerns the target Dihydroorotate dehydrogenase (quinone), mitochondrial (Rattus norvegicus, UniProt Q63707).
Description: Inhibition of rat recombinant DHODH by colorimetric assay
Data set [4] deals with T2, Peroxisome proliferator-activated receptor alpha (Homo sapiens, UniProt Q07869).
T2 sequence (Q07869 whole entry): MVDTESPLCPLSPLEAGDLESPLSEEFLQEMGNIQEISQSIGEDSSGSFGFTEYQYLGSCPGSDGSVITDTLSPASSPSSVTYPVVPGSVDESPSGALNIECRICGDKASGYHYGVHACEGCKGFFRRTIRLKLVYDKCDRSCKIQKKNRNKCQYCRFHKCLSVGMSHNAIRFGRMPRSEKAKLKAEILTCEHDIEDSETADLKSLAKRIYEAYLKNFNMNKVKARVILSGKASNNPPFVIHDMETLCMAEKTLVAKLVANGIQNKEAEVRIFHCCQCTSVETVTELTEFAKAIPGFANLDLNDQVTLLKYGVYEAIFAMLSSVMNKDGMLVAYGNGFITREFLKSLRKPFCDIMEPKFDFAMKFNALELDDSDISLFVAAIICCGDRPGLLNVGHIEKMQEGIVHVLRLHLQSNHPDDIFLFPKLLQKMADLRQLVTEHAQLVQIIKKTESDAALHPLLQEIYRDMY
Description: Agonist activity at human PPARalpha-LBD transfected in HEK293T cells co-transfected with pFR-Luc/pRL-SV40 assessed as transfection efficiency by measuring luciferase activity measured after 16 hrs by Gal4 hybrid reporter gene assay

The target in the next data set is T3, Vitamin D3 receptor (Homo sapiens, UniProt P11473).
T3 sequence (P11473 whole entry): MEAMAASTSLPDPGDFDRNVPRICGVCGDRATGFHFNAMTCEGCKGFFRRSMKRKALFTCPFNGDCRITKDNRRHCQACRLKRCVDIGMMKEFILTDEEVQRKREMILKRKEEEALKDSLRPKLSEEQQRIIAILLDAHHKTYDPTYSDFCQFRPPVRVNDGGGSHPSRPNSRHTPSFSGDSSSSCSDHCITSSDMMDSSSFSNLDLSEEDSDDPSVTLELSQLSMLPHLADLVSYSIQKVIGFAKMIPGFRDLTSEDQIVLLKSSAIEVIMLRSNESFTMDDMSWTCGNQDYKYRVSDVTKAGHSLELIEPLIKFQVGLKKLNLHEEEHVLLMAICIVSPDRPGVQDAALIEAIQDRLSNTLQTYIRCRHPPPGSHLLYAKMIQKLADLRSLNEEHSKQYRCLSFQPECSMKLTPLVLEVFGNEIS

In another data set the target is T4, Bile acid receptor (Homo sapiens, UniProt Q96RI1).
T4 sequence (Q96RI1 whole entry): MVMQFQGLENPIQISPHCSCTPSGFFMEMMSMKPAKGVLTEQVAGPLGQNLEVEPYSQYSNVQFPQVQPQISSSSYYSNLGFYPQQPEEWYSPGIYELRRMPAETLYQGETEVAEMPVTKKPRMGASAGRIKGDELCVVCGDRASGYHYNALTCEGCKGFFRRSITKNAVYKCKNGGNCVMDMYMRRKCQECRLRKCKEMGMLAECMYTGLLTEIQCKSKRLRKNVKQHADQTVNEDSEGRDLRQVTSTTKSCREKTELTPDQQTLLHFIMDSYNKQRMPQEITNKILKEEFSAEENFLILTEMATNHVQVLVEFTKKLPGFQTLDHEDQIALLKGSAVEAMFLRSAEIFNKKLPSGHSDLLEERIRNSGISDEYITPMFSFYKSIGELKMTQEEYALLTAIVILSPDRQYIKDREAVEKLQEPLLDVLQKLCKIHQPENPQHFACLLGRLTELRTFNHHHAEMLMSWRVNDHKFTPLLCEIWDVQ

The target in data set [5] is T5, Thyroid hormone receptor alpha (Homo sapiens, UniProt P10827).
T5 sequence (P10827 whole entry): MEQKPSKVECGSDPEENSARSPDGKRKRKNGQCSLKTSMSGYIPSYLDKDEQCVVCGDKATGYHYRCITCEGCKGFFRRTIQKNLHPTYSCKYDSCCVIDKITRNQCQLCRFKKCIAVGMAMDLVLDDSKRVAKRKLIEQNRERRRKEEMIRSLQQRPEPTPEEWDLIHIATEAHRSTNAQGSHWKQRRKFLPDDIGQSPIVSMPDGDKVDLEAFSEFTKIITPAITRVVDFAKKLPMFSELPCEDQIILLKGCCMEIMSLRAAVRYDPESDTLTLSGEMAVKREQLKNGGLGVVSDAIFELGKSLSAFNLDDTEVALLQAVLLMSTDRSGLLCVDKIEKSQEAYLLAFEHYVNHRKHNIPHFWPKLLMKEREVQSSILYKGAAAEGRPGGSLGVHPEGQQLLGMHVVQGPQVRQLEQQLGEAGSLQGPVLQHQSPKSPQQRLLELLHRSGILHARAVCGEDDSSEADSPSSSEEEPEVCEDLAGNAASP
Description: Agonist activity at human THRalpha-LBD transfected in HEK293T cells co-transfected with pFR-Luc/pRL-SV40 assessed as transfection efficiency by measuring luciferase activity measured after 16 hrs by Gal4 hybrid reporter gene assay

In data set [6] the target is Nuclear receptor subfamily 4 group A member 3 (Homo sapiens, UniProt Q92570).
Description: Agonist activity at NOR1 (unknown origin) by Gal4 hybrid reporter gene assay
Data set [7] addresses T6, Retinoic acid receptor RXR-alpha (Homo sapiens, UniProt P19793).
T6 sequence (P19793 whole entry): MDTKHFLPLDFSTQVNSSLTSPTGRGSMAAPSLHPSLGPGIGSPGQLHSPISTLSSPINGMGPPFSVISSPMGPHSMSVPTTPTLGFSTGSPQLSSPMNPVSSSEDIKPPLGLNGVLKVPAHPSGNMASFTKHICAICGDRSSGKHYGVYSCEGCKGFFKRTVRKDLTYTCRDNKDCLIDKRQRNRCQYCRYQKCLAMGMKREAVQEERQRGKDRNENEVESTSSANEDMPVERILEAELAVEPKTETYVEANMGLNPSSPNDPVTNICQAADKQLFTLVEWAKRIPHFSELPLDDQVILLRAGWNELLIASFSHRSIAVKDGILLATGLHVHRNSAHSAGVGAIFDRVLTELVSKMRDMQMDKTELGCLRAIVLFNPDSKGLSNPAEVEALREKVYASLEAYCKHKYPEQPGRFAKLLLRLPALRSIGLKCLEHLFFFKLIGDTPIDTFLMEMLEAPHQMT
Description: Agonist activity at human RXRalpha-LBD transfected in HEK293T cells co-transfected with pFR-Luc/pRL-SV40 assessed as transfection efficiency by measuring luciferase activity measured after 16 hrs by Gal4 hybrid reporter gene assay

Data set [8] has as its target T7, Peroxisome proliferator-activated receptor gamma (Homo sapiens, UniProt P37231).
T7 sequence (P37231 whole entry): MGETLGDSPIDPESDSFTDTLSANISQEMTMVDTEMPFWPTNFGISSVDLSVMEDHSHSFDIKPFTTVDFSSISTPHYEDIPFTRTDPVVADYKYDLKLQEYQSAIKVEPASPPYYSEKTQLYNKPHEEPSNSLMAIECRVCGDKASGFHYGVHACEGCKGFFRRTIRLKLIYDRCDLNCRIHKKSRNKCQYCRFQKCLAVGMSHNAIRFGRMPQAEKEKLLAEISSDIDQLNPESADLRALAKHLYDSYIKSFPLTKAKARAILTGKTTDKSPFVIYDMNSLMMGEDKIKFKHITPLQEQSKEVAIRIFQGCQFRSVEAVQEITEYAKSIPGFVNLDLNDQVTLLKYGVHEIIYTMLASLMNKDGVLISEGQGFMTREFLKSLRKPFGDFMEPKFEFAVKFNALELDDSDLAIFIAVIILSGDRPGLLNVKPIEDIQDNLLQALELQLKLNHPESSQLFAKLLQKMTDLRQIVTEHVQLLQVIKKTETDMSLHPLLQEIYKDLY
Description: Agonist activity at human PPARgamma-LBD transfected in HEK293T cells co-transfected with pFR-Luc/pRL-SV40 assessed as transfection efficiency by measuring luciferase activity measured after 16 hrs by Gal4 hybrid reporter gene assay

The target of data set [9] is T1, Nuclear receptor subfamily 4immunitygroup A member 1.
Description: as §1
The target of data set [10] is T8, Retinoic acid receptor alpha (Homo sapiens, UniProt P10276).
T8 sequence (P10276 whole entry): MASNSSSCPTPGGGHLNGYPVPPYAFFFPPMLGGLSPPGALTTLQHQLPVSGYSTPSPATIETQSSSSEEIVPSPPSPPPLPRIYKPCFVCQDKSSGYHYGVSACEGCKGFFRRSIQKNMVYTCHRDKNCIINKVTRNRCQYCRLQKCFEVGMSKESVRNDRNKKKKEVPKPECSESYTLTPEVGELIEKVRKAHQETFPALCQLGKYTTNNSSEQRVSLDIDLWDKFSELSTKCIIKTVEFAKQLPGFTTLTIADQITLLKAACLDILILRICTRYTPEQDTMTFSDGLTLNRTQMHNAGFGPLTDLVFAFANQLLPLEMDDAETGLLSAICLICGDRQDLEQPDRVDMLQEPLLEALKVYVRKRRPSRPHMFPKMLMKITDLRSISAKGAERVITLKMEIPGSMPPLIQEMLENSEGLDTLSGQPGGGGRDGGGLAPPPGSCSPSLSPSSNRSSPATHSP
Description: Agonist activity at human RARalpha-LBD transfected in HEK293T cells co-transfected with pFR-Luc/pRL-SV40 assessed as transfection efficiency by measuring luciferase activity measured after 16 hrs by Gal4 hybrid reporter gene assay

T1 sequence (P22736 whole entry): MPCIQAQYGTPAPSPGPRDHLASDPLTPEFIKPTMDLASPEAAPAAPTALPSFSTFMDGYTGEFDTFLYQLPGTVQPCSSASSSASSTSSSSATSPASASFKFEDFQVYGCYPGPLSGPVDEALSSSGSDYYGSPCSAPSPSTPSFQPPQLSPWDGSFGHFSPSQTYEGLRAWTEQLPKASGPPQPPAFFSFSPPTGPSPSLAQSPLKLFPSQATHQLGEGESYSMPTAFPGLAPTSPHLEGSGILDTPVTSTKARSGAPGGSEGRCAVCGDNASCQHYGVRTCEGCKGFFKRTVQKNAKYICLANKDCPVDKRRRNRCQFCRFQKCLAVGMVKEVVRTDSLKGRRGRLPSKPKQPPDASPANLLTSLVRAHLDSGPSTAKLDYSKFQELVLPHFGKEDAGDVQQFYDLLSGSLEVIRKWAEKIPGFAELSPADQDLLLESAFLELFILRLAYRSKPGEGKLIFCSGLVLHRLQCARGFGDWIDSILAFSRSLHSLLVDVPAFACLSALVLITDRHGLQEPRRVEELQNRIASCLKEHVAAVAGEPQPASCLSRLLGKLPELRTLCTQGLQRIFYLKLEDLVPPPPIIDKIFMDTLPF
Sequence of Nuclear receptor subfamily 4 group A member 3 (Q92570 whole entry): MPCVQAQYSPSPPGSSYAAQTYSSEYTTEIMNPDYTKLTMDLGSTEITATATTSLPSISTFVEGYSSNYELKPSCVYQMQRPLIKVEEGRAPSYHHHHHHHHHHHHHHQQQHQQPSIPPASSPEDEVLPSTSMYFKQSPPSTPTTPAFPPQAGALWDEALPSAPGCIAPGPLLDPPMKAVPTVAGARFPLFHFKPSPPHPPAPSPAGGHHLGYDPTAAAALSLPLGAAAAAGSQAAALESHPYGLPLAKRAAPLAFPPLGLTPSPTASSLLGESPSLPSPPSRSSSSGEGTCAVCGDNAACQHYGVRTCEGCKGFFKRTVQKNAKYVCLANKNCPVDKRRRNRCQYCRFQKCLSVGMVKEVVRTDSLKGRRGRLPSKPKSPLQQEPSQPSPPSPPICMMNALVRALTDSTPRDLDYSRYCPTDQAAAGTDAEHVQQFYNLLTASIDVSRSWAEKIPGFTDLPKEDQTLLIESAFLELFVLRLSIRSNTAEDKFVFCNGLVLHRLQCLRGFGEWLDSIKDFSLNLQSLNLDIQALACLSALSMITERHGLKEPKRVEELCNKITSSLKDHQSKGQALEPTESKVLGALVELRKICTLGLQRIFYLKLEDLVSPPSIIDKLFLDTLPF
Sequence of Dihydroorotate dehydrogenase (quinone), mitochondrial (Q63707 whole entry): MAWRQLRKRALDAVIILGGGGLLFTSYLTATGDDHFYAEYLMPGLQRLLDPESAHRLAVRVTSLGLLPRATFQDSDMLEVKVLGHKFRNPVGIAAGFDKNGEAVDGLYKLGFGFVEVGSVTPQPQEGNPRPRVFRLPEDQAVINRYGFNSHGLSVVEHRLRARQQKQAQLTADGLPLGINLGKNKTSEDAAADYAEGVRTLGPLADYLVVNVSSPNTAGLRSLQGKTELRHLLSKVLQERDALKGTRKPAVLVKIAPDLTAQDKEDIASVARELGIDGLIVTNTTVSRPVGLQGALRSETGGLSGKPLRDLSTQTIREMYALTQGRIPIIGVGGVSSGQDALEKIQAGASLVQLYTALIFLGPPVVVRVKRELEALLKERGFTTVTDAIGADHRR
Description for Bile acid receptor: Agonist activity at human FXR-LBD transfected in HEK293T cells co-transfected with pFR-Luc/pRL-SV40 assessed as transfection efficiency by measuring luciferase activity measured after 16 hrs by Gal4 hybrid reporter gene assay
Description for Vitamin D3 receptor: Agonist activity at human VDR-LBD transfected in HEK293T cells co-transfected with pFR-Luc/pRL-SV40 assessed as transfection efficiency by measuring luciferase activity measured after 16 hrs by Gal4 hybrid reporter gene assay

In [1], `C#CCOc1cccc(-c2ccc(NC(=O)C3=C(C(=O)O)CCC3)c(F)c2)c1` registered an EC50 of 1.4 µM. The compound also had an AUC at 8 h in “in vivo” of 290 µM·h. The same compound came in with a Cmax in [2] of 56 µM. The compound also gave an IC50 in data set [3] of 6 µM.

As to `COc1cccc(-c2ccc(NC(=O)C3=C(C(=O)O)CCC3)c(F)c2)c1` [VIDOFLUDIMUS], the EC50 is more than 10 µM in data set [4]; more than 10 µM on Vitamin D3 receptor; more than 10 µM on Bile acid receptor; more than 10 µM in data set [5]; 2.9 µM in data set [6]; more than 10 µM in [7]. The EC50 in data set [8] is more than 10 µM; in [9] it was 3.1 µM; in data set [10], more than 10 µM.
